Experimental data from US10815276B2, “Cell penetrating peptides and methods of making and using thereof” (Entrada Therapeutics, Inc., priority 2014, dated 2020).
Several values for one entry are separate records, joined by “and”; a condition that tells them apart may be missing. Equal values may be shown once. Read-outs that look alike come from different tables or passages of the source. Starred links: 1 amine or outer side, 2 acyl side, 3 side chain; linkers in the order of their positions; H or OH if unused. Non-standard residues stand in square brackets, D forms with d. Residues, ends and D or L forms follow the SMILES beside them. No end group written: not given here. *: point of attachment. RhodamineB = CCN(CC)c1ccc2c(-c3ccccc3C(=O)*)c3ccc(=[N+](CC)CC)cc-3oc2c1; Trimesoyl = O=C(c1cc(C(=O)[*:2])cc(C(=O)[*:3])c1)[*:1]; 2Nal = N[C@@H](Cc1ccc2ccccc2c1)C(=O)O; Dap = NC[C@H](N)C(=O)O

Columns and labels:
[1] = pKa of CAP fluorophore; assay type: physicochemical; conditions: deprotonated state fluorescent
[2] = tested on: HeLa cells; assay: Cytoplasmic delivery of pCAP-containing peptides, flow cytometry; conditions: pCAP-containing peptide as cargo
[3] = tested on: HEK293, MCF-7, A549, H1650, and H1299; assay: MTT cytotoxicity assay; assay type: cell-based, human
Method: MTT assays were performed to evaluate cyclic peptide's cytotoxicity against several mammalian cell lines (Mosmann, T. J. Immunol. Methods, 1983, 65, 55-63). One hundred μL of MCF-7, HEK293, H1299, H1650, A549 (1×10^5 cells/mL) cells were placed in each well of a 96-well culture plate and allowed to grow overnight. Varying concentrations of the peptide (5 or 50 μM) were added to the each well and the cells were incubated at 37° C. with 5% CO2 for 24 to 72 h. Ten μL of MTT stock solution was added into each well. Addition of 10 μL of the solution to the growth medium (no cell) was used as a negative control. The plate was incubated at 37° C. for 4 h. Then 100 μL of SDS-HCl solubilizing buffer was added into each well, and the resulting solution was mixed thoroughly. The plate was incubated at 37° C. for another 4 h. The absorbance of the formazan product was measured at 570 nm using a Molecular Devices Spectramax M5 plate reader. Each experiment was performed in triplicates and the cells without any peptide added were treated as control.

[4] = tested on: SUV1 (vesicles that mimic the neutral outer membrane of mammalian cells); assay: Fluorescence polarization membrane binding, SUV1
Source text: (§1) Also discussed herein are the CPP sequences in Table 16. All uptake/delivery efficiencies are in Table 17 are relative to that of cFΦR4 (290-1F, 100%). SUV1 are small unilamellar vesicles that mimic the neutral outer membrane of mammalian cells [45% phosphatidylcholine (PC), 20% phosphatidylethanolamine (PE), 20% sphingomyelin (SM), and 15% cholesterol (CHO)]. SUV2 are small unilamellar vesicles that mimic the negatively charged endosomal membrane of mammalian cells [50% PC, 20% PE, 10% phosphatidylinositol (PI), and 20% bis(monoacylglycerol)phosphate].
(§2) Measurements were carried out fluorescence polarization using FITC-labeled cyclic peptides against increasing concentrations of vesicles. Experiments were performed at pH 7.4 and 5.5 (pH inside late endosomes).

[5] = tested on: cell type (e.g., HeLa cells); assay: Cellular uptake efficiency of cyclic CPPs; assay type: cell-based; conditions: relative to cFΦR4 (290-1F, 100%)
Method: In particular embodiments, uptake efficiency is determined by comparing (i) the amount of a cyclic cell-penetrating peptide of the invention internalized by a cell type (e.g., HeLa cells) to (ii) the amount of c(FΦRRRRQ) (290-1F) internalized by the same cell type. To measure cellular uptake efficiency, the cell type may be incubated in the presence of a cell-penetrating peptide of the invention for a specified period of time (e.g., 30 minutes, 1 hour, 2 hours, etc.) after which the amount of the cell-penetrating peptide internalized by the cell is quantified. Separately, the same concentration of c(FΦRRRRQ) (290-1F) is incubated in the presence of the cell type over the same period of time, and the amount of the second peptide internalized by the cell is quantified. Quantification can be achieved by fluorescently labeling the cell-penetrating peptide (e.g., with a FTIC dye) and measuring the fluorescence intensity using techniques well-known in the art.
as §1

[6] = tested on: mammalian cells; conditions: Qian et al. 2013; cited from earlier work
[7] = tested on: SUV2 (vesicles that mimic the negatively charged endosomal membrane of mammalian cells); assay: Fluorescence polarization membrane binding, SUV2
Source text: as §1, §2

[8] = tested on: HeLa cells; assay: Effect on endocytosis of dextran^Alexa488, flow cytometry; assay type: cell-based, human; conditions: 1 μM cFΦR4, 100 μM dextran^Alexa488, 30 min
Method: HeLa cells were treated with clear DMEM containing no supplement, 1 μM cFΦR4 only, 100 μM dextran^Alexa488 only, or both 1 μM cFΦR4 and 100 μM dextran^Alexa488. MFI, mean fluorescence intensity.
Following adherence, cells were treated with clear DMEM containing no supplement, 1 μM cFΦR4 peptide, 100 μM dextran^Alexa488 (Life Technologies, D-22910), or both 1 μM cyclic peptide and 100 μM dextran^Alexa488 for 30 min under standard cell culture conditions. The cells were washed with DPBS twice, removed from the plate with 0.25% trypsin, diluted into clear DMEM containing 10% FBS, pelleted at 300 g for 5 min, washed once with DPBS and resuspended in 200 μL of DPBS. Whole-cell dextran uptake was analyzed on a BD Accuri C6 flow cytometer using the manufacturer FL1 laser and filter set.

[9] = tested on: HeLa cells; assay: FACS uptake of FITC-labeled peptides; assay type: cell-based, human; conditions: 5 μM, 2 h
[10] = tested on: HeLa cells; assay: Live-cell confocal microscopy of FITC-labeled peptides; assay type: cell-based, human; conditions: 5 μM
Method: To detect peptide internalization, 1 mL of HeLa cell suspension (5×10^4 cells) was seeded in a 35 mm glass-bottomed microwell dish (MatTek) and cultured overnight. Cells were gently washed with DPBS twice and treated with FITC labeled peptides (5 μM) and dextran^Rho (0.5 mg mL^−1) in phenol-red free DMEM containing 1% serum at 37° C. for 1 h in the presence of 5% CO2. After removal of the medium, the cells were gently washed with DPBS twice and incubated with 5 μM DRAQS in DPBS for 10 min. The cells were again washed with DPBS twice and imaged on a Visitech Infinity 3 Hawk 2D-array live cell imaging confocal microscope. Images were captured under the same parameters and adjusted under the same setting using MetaMorph (Molecular Devices).

[11] = tested on: α-chymotrypsin and trypsin; assay: Peptide proteolysis stability assay; assay type: in vitro ADME; conditions: 37° C.
Method: The stability tests were carried out by slightly modifying a previously reported procedure (Frackenpohl, J et al. Chembiochem 2001, 2, 445). 24 μL of 1.5 mM peptide solution was incubated at 37° C. with 30 μL 50 μM of α-chymotrypsin and 30 μL 50 μM of trypsin in 200 μL of working buffer (50 mM Tris-HCl, pH 8.0, NaCl (100 mM), CaCl2 (10 mM)). At various time points (0-12 h), 40 μL aliquots were withdrawn and mixed with 40 μL of 15% trichloroacetic acid and incubated at 4° C. overnight. The final mixture was centrifuged at 15,000 rpm for 10 min in a microcentrifuge, and the supernatant was analyzed by reversed-phase HPLC equipped with a C18 column (Waters). The amount of remaining peptide (%) was determined by integrating the area underneath the peptide peak (monitored at 214 nm) and compared with that of control reaction (no proteases).

[12] = tested on: HEK293 cells; assay: FACS uptake of rhodamine-labeled bicyclic vs monocyclic peptide; assay type: cell-based, human
Source text: In recent years, there has been much interest in cyclic peptides as therapeutic agents and biomedical research tools (Driggers, E M et al. Nat. Rev. Drug Discov., 2008, 7, 608-624; Marsault, E and Peterson, M L. J. Med. Chem., 2011, 54, 1961-2004). For example, cyclic peptides are effective for inhibition of protein-protein interactions (Lian, W et al. J. Am. Chem. Soc., 2013, 135, 11990-11995; Liu, T et al. ACS Comb. Sci., 2011, 13, 537-546; Dewan, V et al. ACS Chem. Biol., 2012, 7, 761-769; Wu, X et al. Med. Chem. Commun., 2013, 4, 378-382), which are challenging targets for conventional small molecules. A major obstacle in developing cyclic peptide therapeutics is that they are generally impermeable to the cell membrane (Kwon, Y U and Kodadek, T. Chem. Biol., 2007, 14, 671-677; Rezai, T et al. J. Am. Chem. Soc., 2006, 128, 2510-2511; Chatterjee, J et al. Acc. Chem. Res., 2008, 41, 1331-1342). […] The bicyclic peptides were readily synthesized by forming three amide bonds between a trimesoyl scaffold and three amino groups on the corresponding linear peptide (i.e., the N-terminal amine, the side chain of a C-terminal diaminopropionic acid (Dap), and the side chain of a lysine (or ornithine, Dap) imbedded in between the CPP and target-binding motifs) (Lian, W et al. J. Am. Chem. Soc., 2013, 135, 11990-11995). […]

[13] = tested on: NIH 3T3 cells; assay: Anti-pY western blot of global pY protein levels; assay type: cell-based; conditions: 0-500 nM, 2 h
Method: NIH 3T3 cells were cultured in full growth media to reach 80% confluence. The cells were starved in serum free media for 3 h and treated with different concentrations of cFΦR4-PTP1B or untagged PTP1B for 2 h, followed by 30 min incubation in media supplemented with 1 mM sodium pervanadate. The solutions were removed and the cells were washed with cold DPBS twice. The cells were detached and lysed in 50 mM Tris-HCl, pH 7.4, 150 mM NaCl, 1% NP-40, 10 mM sodium pyrophosphate, 5 mM iodoacetic acid, 10 mM NaF, 1 mM EDTA, 2 mM sodium pervanadate, 0.1 mg/mL phenylmethanesulfonyl fluoride, 1 mM benzamidine, and 0.1 mg/mL trypsin inhibitor. After 30 min incubation on ice, the cell lysate was centrifuged at 15,000 rpm for 25 min in a microcentrifuge. The total cellular proteins were separated by SDS-PAGE and transferred electrophoretically to PVDF membrane, which was immunoblotted using anti-pY antibody 4G10.
NIH 3T3 cells were incubated for 2 h in the presence of untagged PTP1B or cFΦR4-PTP1B and their global pY protein levels were analyzed by anti-pY western blotting (FIG. 12A). […] Several proteins in the 150-200 kD range were completely dephosphorylated upon the addition of 62 nM cFΦR4-PTP1B, whereas proteins of ˜80 kD remained phosphorylated at 500 nM cFΦR4-PTP1B.

[14] = Aqueous solubility; assay type: physicochemical

## NC(Cc1cc(=O)oc2cc(O)ccc12)C(=O)O (centres unmarked) [CAP, coumaryl aminopropionic acid]
[1]
  pKa: 7.8

## N=C(N)NCCC[C@@H]1NC(=O)[C@H](CCCNC(=N)N)NC(=O)[C@H](CCCNC(=N)N)NC(=O)[C@H](Cc2ccc3ccccc3c2)NC(=O)[C@H](Cc2ccccc2)NC(=O)[C@H](CCC(N)=O)NC(=O)[C@H](CCCNC(=N)N)NC1=O [cFΦR4, cyclo(FΦRRRRQ)] (cyclo(F[2Nal]RRRRQ))
[2]
  Delivery efficiency higher than R9, Antp, and Tat: 4-12 fold and 3.7-12 fold
[3]; 50 μM
  Growth inhibition after 72 h: up to 20%
[3]; up to 50 μM
  Growth inhibition after 24 or 48 h: no significant growth inhibition
[4]; pH 5.5, read-out: Membrane Binding KD (mM) SUV1 pH 5.5
  Kd: 1.1 mM
[4]; pH 7.4, read-out: Membrane Binding KD (mM) SUV1 pH 7.4
  Kd: 4 mM
[5]
  Uptake Efficiency (%): 100%
[6]
  Efficiency of entering cytoplasm and nucleus higher than nonaarginine (R9): 2-5 fold
[7]; pH 5.5, read-out: Membrane Binding KD (mM) SUV2 pH 5.5
  Kd: 0.63 mM
[7]; pH 7.4, read-out: Membrane Binding KD (mM) SUV2 pH 7.4
  Kd: 0.66 mM
[8]
  Increase in internalization of dextran^Alexa488: 15%

## CH3CH2CH2CO-FΦRRRRUK(FITC)-NH2 [Peptide 2 (Example 2)]
[9]
  Mean fluorescence intensity (MFI), total intracellular FITC fluorescence: 5530 arbitrary units (AU)
[10]
  Intracellular FITC fluorescence (confocal): much weaker intracellular fluorescence
[11]
  Half-life with protease cocktail: ~20 min

## [Tm(AAAAA)K(RRRRΦF)J]-K(Rho) (Trimesoyl-AAAAAKRRRR[2Nal]F[Dap]K(RhodamineB); linker (positions not given here) via Trimesoyl; not fully specified (C-terminus, bridges); printed as [Tm(AAAAA)K(RRRRΦF)J]-K(Rho)) [bicyclo(FΦR4-A5)^Rho]
[12]
  Uptake more efficient than corresponding monocyclic peptide (compound 17): ~3 fold

## cFΦR4-PTP1B: cFΦR4 conjugated to ybbR-tagged PTP1B catalytic domain via a thioether bond
[13]
  Global pY protein levels: concentration-dependent decrease in pY levels

## cyclo(FΦRRRRQ)-FFFF-K(Rho) (cyclo(F[2Nal]RRRRQFFFFK(RhodamineB)); not fully specified (C-terminus, bridges); printed as cyclo(FΦRRRRQ)-FFFF-K(Rho)) [cFΦR4-F4]
[14]
  Aqueous solubility: poor
